Laboratory results taken from PMC11822212, “High-throughput screening identifies Aurora kinase B as a critical therapeutic target for Merkel cell carcinoma” (Nature Communications, 2025).
Several values for one entry are separate records, joined by “and”; a condition that tells them apart may be missing. Equal entries are not always repeated. Where two headings read alike, the source gives them in different places.

Experiments:
MKL-2 cells (VP-MCC) = experiment: qHTS cell viability (CellTiter-Glo, 72 h; primary and follow-up small molecule screen); format: cell-based, human; details: for Area under the dose-response curve (AUC) MKL-2 Replicate 1 / Area under the dose-response curve (AUC) MKL-2 Replicate 2 / Area under the dose-response curve (AUC) MKL-2 Replicate 3: follow-up screen
MCC26 cells (VN-MCC) = experiment: as above; format: cell-based, human; details: for Area under the dose-response curve (AUC) MCC26 Replicate 1 / Area under the dose-response curve (AUC) MCC26 Replicate 2 / Area under the dose-response curve (AUC) MCC26 Replicate 3: follow-up screen
[1] = tested on: MCC cell lines (WAGA, MKL-1, MKL-2, MCC13, MCC26, UISO); experiment: qHTS cell viability, all six MCC cell lines as a group (mean AUC, MCC.avg); format: cell-based, human
[2] = tested on: VP-MCC cell lines (WAGA, MKL-1, MKL-2); experiment: qHTS cell viability, VP-MCC cell lines as a group (mean AUC, VP.MCC.avg); format: cell-based, human
MCC13 cells (VN-MCC) = experiment: qHTS cell viability (CellTiter-Glo, 72 h; primary and follow-up small molecule screen); format: cell-based, human; details: for Area under the dose-response curve (AUC) MCC13 Replicate 1 / Area under the dose-response curve (AUC) MCC13 Replicate 2 / Area under the dose-response curve (AUC) MCC13 Replicate 3: follow-up screen
HEK293T cells = experiment: qHTS cell viability (CellTiter-Glo, 72 h; primary screen), control cell line; format: cell-based, human
[3] = tested on: VN-MCC cell lines (MCC13, MCC26, UISO); experiment: qHTS cell viability, VN-MCC cell lines as a group (mean AUC, VN.MCC.avg); format: cell-based, human
MKL-1 cells (VP-MCC) = experiment: qHTS cell viability (CellTiter-Glo, 72 h; primary and follow-up small molecule screen); format: cell-based, human; details: for Area under the dose-response curve (AUC) MKL-1 Replicate 1 / Area under the dose-response curve (AUC) MKL-1 Replicate 2 / Area under the dose-response curve (AUC) MKL-1 Replicate 3: follow-up screen
WAGA cells (VP-MCC) = experiment: as above; format: cell-based, human; details: for Area under the dose-response curve (AUC) WAGA Replicate 1 / Area under the dose-response curve (AUC) WAGA Replicate 2 / Area under the dose-response curve (AUC) WAGA Replicate 3: follow-up screen
[4] = tested on: six MCC cell lines and four control cell lines; experiment: qHTS cell viability, all 10 cell lines screened; format: cell-based
HACAT cells = experiment: qHTS cell viability (CellTiter-Glo, 72 h; primary screen), control cell line; format: cell-based, human
UISO cells (VN-MCC) = experiment: qHTS cell viability (CellTiter-Glo, 72 h; primary and follow-up small molecule screen); format: cell-based, human; details: for Area under the dose-response curve (AUC) UISO Replicate 1 / Area under the dose-response curve (AUC) UISO Replicate 2 / Area under the dose-response curve (AUC) UISO Replicate 3: follow-up screen
[5] = tested on: control cell lines (HACAT, HEK293T, CRL-7250, NIH-3T3); experiment: qHTS cell viability, control cell lines as a group (mean AUC, Control.avg); format: cell-based
NIH-3T3 cells = experiment: qHTS cell viability (CellTiter-Glo, 72 h; primary screen), control cell line; format: cell-based, mouse
CRL-7250 cells = experiment: as above; format: cell-based
[6] = MIPE library, 11-point DRC, sheet S2E
[7] = MIPE library, 11-point DRC, control cell line, sheet S2E

For `CC#C[C@]1(O)CC[C@H]2[C@@H]3CCC4=CC(=O)CCC4=C3[C@@H](c3ccc(N(C)C)cc3)C[C@@]21C` [Mifepristone], the MKL2_AUC (MKL-2 cells (VP-MCC); [6]) was 266.162, the “Area under the dose-response curve (AUC) MKL-2 Replicate 1” value (MKL-2 cells (VP-MCC)) was 494.5 and the “Area under the dose-response curve (AUC) MKL-2 Replicate 2” value (MKL-2 cells (VP-MCC)) was 503.2. For the same compound, the “Area under the dose-response curve (AUC) MKL-2 Replicate 3” value (MKL-2 cells (VP-MCC)) was 499.4, the MCC26_AUC (MCC26 cells (VN-MCC); [6]) was 459.158 and the “Area under the dose-response curve (AUC) MCC26 Replicate 1” value (MCC26 cells (VN-MCC); MCC26) was 467.8. For the same compound, the “Area under the dose-response curve (AUC) MCC26 Replicate 2” value (MCC26 cells (VN-MCC); MCC26) was 425.4, the “Area under the dose-response curve (AUC) MCC26 Replicate 3” value (MCC26 cells (VN-MCC); MCC26) was 483.6 and the MCC_Avg_AUC ([1]; MIPE library, mean AUC of six MCC cell lines, sheet S2E) was 351.459. It also gave a Control-VP-MCC ([2]; MIPE library, Control AUC minus VP-MCC AUC (therapeutic window), sheet S2E) of 171.607, a VP-MCC_Avg_AUC ([2]; MIPE library, mean AUC of VP-MCC cell lines, sheet S2E) of 277.18 and an MCC13_AUC (MCC13 cells (VN-MCC); [6]) of 450.219. For the same compound, the “Area under the dose-response curve (AUC) MCC13 Replicate 1” value (MCC13 cells (VN-MCC); MCC13) was 516.1, the “Area under the dose-response curve (AUC) MCC13 Replicate 2” value (MCC13 cells (VN-MCC); MCC13) was 505.4 and the “Area under the dose-response curve (AUC) MCC13 Replicate 3” value (MCC13 cells (VN-MCC); MCC13) was 486.2. It also gave an HEK293T_AUC (HEK293T cells; [7]) of 403.35, a Control-VN-MCC ([3]; MIPE library, Control AUC minus VN-MCC AUC (therapeutic window), sheet S2E) of 23.0495 and a VN-MCC_Avg_AUC ([3]; MIPE library, mean AUC of VN-MCC cell lines, sheet S2E) of 425.738. For the same compound, the MKL1_AUC (MKL-1 cells (VP-MCC); [6]) was 274.173, the “Area under the dose-response curve (AUC) MKL-1 Replicate 1” value (MKL-1 cells (VP-MCC)) was 491.0 and the “Area under the dose-response curve (AUC) MKL-1 Replicate 2” value (MKL-1 cells (VP-MCC)) was 482.0. For the same compound, the “Area under the dose-response curve (AUC) MKL-1 Replicate 3” value (MKL-1 cells (VP-MCC)) was 520.5, the WAGA_AUC (WAGA cells (VP-MCC); [6]) was 291.204 and the “Area under the dose-response curve (AUC) WAGA Replicate 1” value (WAGA cells (VP-MCC); WAGA) was 532.2. The “Area under the dose-response curve (AUC) WAGA Replicate 2” value (WAGA cells (VP-MCC); WAGA) was 542.6, the “Area under the dose-response curve (AUC) WAGA Replicate 3” value (WAGA cells (VP-MCC); WAGA) was 501.4 and the Control-MCC ([4]; MIPE library, Control AUC minus MCC AUC (therapeutic window), sheet S2E) was 97.3285. The HACAT_AUC (HACAT cells; [7]) was 471.301, the UISO_AUC (UISO cells (VN-MCC); [6]) was 367.837 and the “Area under the dose-response curve (AUC) UISO Replicate 1” value (UISO cells (VN-MCC); UISO) was 472.5. For the same compound, the “Area under the dose-response curve (AUC) UISO Replicate 2” value (UISO cells (VN-MCC); UISO) was 481.5, the “Area under the dose-response curve (AUC) UISO Replicate 3” value (UISO cells (VN-MCC); UISO) was 472.0 and the Control_Avg_AUC ([5]; MIPE library, mean AUC of control cell lines, sheet S2E) was 448.787. For the same compound, the NIH3T3_AUC (NIH-3T3 cells; [7]) was 475.344 and the CRL7250_AUC (CRL-7250 cells; [7]) was 445.154.

For `COc1c(C)c2c(c(O)c1C/C=C(\C)CCC(=O)OCCN1CCOCC1)C(=O)OC2` [Mycophenolate mofetil], the MKL2_AUC (MKL-2 cells (VP-MCC); NPC library, qHTS dose-response AUC, MKL2) was 105.914, the “Area under the dose-response curve (AUC) MKL-2 Replicate 1” value (MKL-2 cells (VP-MCC)) was 325.5 and the “Area under the dose-response curve (AUC) MKL-2 Replicate 2” value (MKL-2 cells (VP-MCC)) was 324.8. For the same compound, the “Area under the dose-response curve (AUC) MKL-2 Replicate 3” value (MKL-2 cells (VP-MCC)) was 367.3, the MCC26_AUC (MCC26 cells (VN-MCC); NPC library, qHTS dose-response AUC, MCC26) was 393.051 and the “Area under the dose-response curve (AUC) MCC26 Replicate 1” value (MCC26 cells (VN-MCC); MCC26) was 381.3. For the same compound, the “Area under the dose-response curve (AUC) MCC26 Replicate 2” value (MCC26 cells (VN-MCC); MCC26) was 385.2, the “Area under the dose-response curve (AUC) MCC26 Replicate 3” value (MCC26 cells (VN-MCC); MCC26) was 373.0 and the MCC_Avg_AUC ([1]; NPC library, mean AUC of all 6 MCC cell lines) was 256.444. The MCC_Avg_AUC ([1]; NPC library, mean AUC of six MCC cell lines) was 256.444, the Control-VP-MCC ([2]; Control AUC minus VP-MCC AUC) was 263.498 and the VP-MCC_Avg_AUC ([2]; NPC library, mean AUC of VP-MCC cell lines) was 137.09. The Control-VP-MCC ([2]; NPC library, therapeutic window: Control avg AUC minus VP-MCC avg AUC) was 263.498, the MCC13_AUC (MCC13 cells (VN-MCC); NPC library, qHTS dose-response AUC, MCC13) was 354.203 and the “Area under the dose-response curve (AUC) MCC13 Replicate 1” value (MCC13 cells (VN-MCC); MCC13) was 377.4. For the same compound, the “Area under the dose-response curve (AUC) MCC13 Replicate 2” value (MCC13 cells (VN-MCC); MCC13) was 383.7, the “Area under the dose-response curve (AUC) MCC13 Replicate 3” value (MCC13 cells (VN-MCC); MCC13) was 412.3 and the HEK293T_AUC (HEK293T cells; NPC library, qHTS dose-response AUC, HEK293T control) was 332.795. For the same compound, the Control-VN-MCC ([3]; Control AUC minus VN-MCC AUC) was 24.7903, the VN-MCC_Avg_AUC ([3]; NPC library, mean AUC of VN-MCC cell lines) was 375.798 and the Control-VN-MCC ([3]; NPC library, therapeutic window: Control avg AUC minus VN-MCC avg AUC) was 24.7903. The MKL1_AUC (MKL-1 cells (VP-MCC); NPC library, qHTS dose-response AUC, MKL1) was 148.352, the “Area under the dose-response curve (AUC) MKL-1 Replicate 1” value (MKL-1 cells (VP-MCC)) was 342.8 and the “Area under the dose-response curve (AUC) MKL-1 Replicate 2” value (MKL-1 cells (VP-MCC)) was 365.2. The “Area under the dose-response curve (AUC) MKL-1 Replicate 3” value (MKL-1 cells (VP-MCC)) was 378.9, the WAGA_AUC (WAGA cells (VP-MCC); NPC library, qHTS dose-response AUC, WAGA) was 157.003 and the “Area under the dose-response curve (AUC) WAGA Replicate 1” value (WAGA cells (VP-MCC); WAGA) was 322.6. The “Area under the dose-response curve (AUC) WAGA Replicate 2” value (WAGA cells (VP-MCC); WAGA) was 354.0, the “Area under the dose-response curve (AUC) WAGA Replicate 3” value (WAGA cells (VP-MCC); WAGA) was 383.1 and the Control-MCC ([4]; NPC library, therapeutic window: Control avg AUC minus MCC avg AUC) was 144.144. For the same compound, the HACAT_AUC (HACAT cells; NPC library, qHTS dose-response AUC, HACAT control) was 439.79, the UISO_AUC (UISO cells (VN-MCC); NPC library, qHTS dose-response AUC, UISO) was 380.141 and the “Area under the dose-response curve (AUC) UISO Replicate 1” value (UISO cells (VN-MCC); UISO) was 348.1. For the same compound, the “Area under the dose-response curve (AUC) UISO Replicate 2” value (UISO cells (VN-MCC); UISO) was 378.4, the “Area under the dose-response curve (AUC) UISO Replicate 3” value (UISO cells (VN-MCC); UISO) was 389.6 and the Control_Avg_AUC ([5]; NPC library, mean AUC of control cell lines) was 400.588. The NIH3T3_AUC (NIH-3T3 cells; NPC library, qHTS dose-response AUC, NIH3T3 control) was 433.09 and the CRL7250_AUC (CRL-7250 cells; NPC library, qHTS dose-response AUC, CRL7250 control) was 396.679.

For `CCN(CC)CCc1c[nH]c2ccccc12.O=C(O)/C=C/C(=O)O` [N,N-Diethyltryptamine fumarate], the MKL2_AUC (MKL-2 cells (VP-MCC)) was 447.202, the MCC26_AUC (MCC26 cells (VN-MCC)) was 402.623 and the MCC_Avg_AUC [1] was 431.284. It also gave a Control-VP-MCC [2] of 25.7182, a VP-MCC_Avg_AUC [2] of 446.639 and an MCC13_AUC (MCC13 cells (VN-MCC)) of 439.565. It also gave an HEK293T_AUC (HEK293T cells) of 459.326, a Control-VN-MCC [3] of 56.4273 and a VN-MCC_Avg_AUC [3] of 415.93. The MKL1_AUC (MKL-1 cells (VP-MCC)) was 443.844, the WAGA_AUC (WAGA cells (VP-MCC)) was 448.87 and 448.871 and the Control-MCC [4] was 41.0728. The HACAT_AUC (HACAT cells) was 490.224 and 490.225, the UISO_AUC (UISO cells (VN-MCC)) was 405.6 and the Control_Avg_AUC [5] was 472.357. The NIH3T3_AUC (NIH-3T3 cells) was 478.712 and the CRL7250_AUC (CRL-7250 cells) was 461.166.
